Assay results published in patent US11498930B2 (BLUERAY THERAPEUTICS (SHANGHAI) CO., LTD., priority 2018, dated 2022).

Each compound was assayed against SHP2^E76A protein (Homo sapiens (Human), UniProt Q06124, E76A) (assay: SHP2 enzyme activity inhibition experiment). Conditions: SHP2 enzyme activity, Tables 1.1 and 1.2; read-out: IC50.
SHP2^E76A protein, sequence (Q06124 whole entry E76A): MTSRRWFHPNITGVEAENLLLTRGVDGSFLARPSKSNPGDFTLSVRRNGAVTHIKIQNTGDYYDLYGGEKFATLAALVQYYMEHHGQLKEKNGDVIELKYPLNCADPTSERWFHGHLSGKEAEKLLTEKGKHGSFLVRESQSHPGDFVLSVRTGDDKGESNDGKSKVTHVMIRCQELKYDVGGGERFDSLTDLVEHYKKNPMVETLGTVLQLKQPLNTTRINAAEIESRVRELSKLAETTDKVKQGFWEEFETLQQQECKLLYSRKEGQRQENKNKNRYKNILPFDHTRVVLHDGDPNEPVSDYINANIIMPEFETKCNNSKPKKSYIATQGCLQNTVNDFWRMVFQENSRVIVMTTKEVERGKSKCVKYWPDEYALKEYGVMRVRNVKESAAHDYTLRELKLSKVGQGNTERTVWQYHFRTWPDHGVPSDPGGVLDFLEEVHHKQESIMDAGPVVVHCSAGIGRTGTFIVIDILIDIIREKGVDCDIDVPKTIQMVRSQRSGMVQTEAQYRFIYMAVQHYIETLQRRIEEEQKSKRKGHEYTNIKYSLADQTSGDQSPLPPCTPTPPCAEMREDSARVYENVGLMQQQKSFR
Type: biochemical
Method: Compound powders were dissolved in DMSO to prepare mother liquor.
During the experiment, the stock solutions of the compounds were subjected to 3-fold gradient dilution with DMSO, and 10 different test concentrations of each compound were set. […] The protein used was the activated protein SHP^2E76A with amino acid mutation at position 76 of the protein, and the substrate used was DiFMUP (Invitrogen, E12020). […] 50 µL of enzyme solution was added to the detection wells, followed by 50 µL of substrate. […] GraphPad Prism 5 was used for nonlinear regression analysis, and the curve of enzyme activity versus compound concentration was fitted by the equation Y=Bottom+(Top-Bottom)/(1+10^((Log IC50−X)*HillSlope)) to calculate the IC50 value of each compound.
In the case of `NC1CCCCC12CCN(c1ncc(Sc3cccc(Cl)c3Cl)c3ncnn13)CC2` (centres unmarked), the IC50 is reported as 100 to 1000 nM. With `C[C@@H]1OCC2(CCN(c3ncc(Sc4cc(N)ncc4Cl)c4nncn34)CC2)[C@@H]1N` the IC50 was < 100 nM. `N[C@@H]1CCCC12CCN(c1ncc(Sc3cccnc3Cl)c3ncnn13)CC2` was tested, and the IC50 was 100 to 1000 nM. `NC1CCCN(c2ncc(Sc3cccc(Cl)c3Cl)c3ncnn23)CC1` (centres unmarked) [1-(8-((2,3-dichlorophenyl)thio)-[1,2,4]triazolo[1,5-c]pyrimidin-5-yl)azepan-4-amine] was tested, and the IC50 was 100 to 1000 nM. In the case of `CC1(N)CCN(c2ncc(Sc3cccc(Cl)c3Cl)c3nccn23)CC1` [1-(8-((2,3-dichlorophenyl)thio)imidazo[1,2-c]pyrimidin-5-yl)-4-methylpiperidin-4-amine], the IC50 is reported as 100 to 1000 nM. With `NCC1(c2ccccc2)CCN(c2ncc(Sc3cccc(Cl)c3Cl)c3nncn23)CC1` [(1-(8-((2,3-dichlorophenyl)thio)-[1,2,4]triazolo[4,3-c]pyrimidin-5-yl)-4-phenylpiperidin-4-yl)methanamine] the IC50 was < 100 nM. `N[C@@H]1CCCC12CCN(c1ncc(Sc3ccc4c(c3)CCO4)c3nccn13)CC2` [(R)-8-(8-((2,3-dihydrobenzofuran-5-yl)thio)imidazo[1,2-c]pyrimidin-5-yl)-8-azaspiro[4.5]decan-1-amine] was tested, and the IC50 was 100 to 1000 nM. `N[C@@H]1CCCC12CCN(c1ncc(Sc3ccc(Cl)cc3Cl)c3nccn13)CC2` [(R)-8-(8-((2,4-dichlorophenyl)thio)imidazo[1,2-c]pyrimidin-5-yl)-8-azaspiro[4.5]decan-1-amine] showed an IC50 of 100 to 1000 nM. For `N[C@@H]1CCCC12CCN(c1ncc(Sc3c(Cl)cccc3Cl)c3nncn13)CC2` [(R)-8-(8-((2,6-dichlorophenyl)thio)-[1,2,4]triazolo[4,3-c]pyrimidin-5-yl)-8-azaspiro[4.5]decan-1-amine], the IC50 was 1000 to 10000 nM. `Nc1cc(Sc2cnc(N3CCC4(CCC[C@H]4N)CC3)n3cnnc23)c(Cl)cn1` [(R)-8-(8-((2-amino-5-chloropyridin-4-yl)thio)-[1,2,4]triazolo[4,3-c]pyrimidin-5-yl)-8-azaspiro[4.5]decan-1-amine] was tested, and the IC50 was 1000 to 10000 nM. `N[C@@H]1CCCC12CCN(c1ncc(Sc3ccccc3Cl)c3nccn13)CC2` [(R)-8-(8-((2-chlorophenyl)thio)imidazo[1,2-c]pyrimidin-5-yl)-8-azaspiro[4.5]decan-1-amine] was tested, and the IC50 was < 100 nM. `N[C@@H]1CCCC12CCN(c1ncc(Sc3cccnc3Cl)c3nccn13)CC2` [(R)-8-(8-((2-chloropyridin-3-yl)thio)imidazo[1,2-c]pyrimidin-5-yl)-8-azaspiro[4.5]decan-1-amine] was tested, and the IC50 was < 100 nM. In the case of `N[C@@H]1CCCC12CCN(c1ncc(Sc3ccnc(Cl)n3)c3nccn13)CC2` [(R)-8-(8-((2-chloropyrimidin-4-yl)thio)imidazo[1,2-c]pyrimidin-5-yl)-8-azaspiro[4.5]decan-1-amine], the IC50 is reported as < 100 nM. With `CC(C)c1ccccc1Sc1cnc(N2CCC3(CCC[C@H]3N)CC2)n2ccnc12` [(R)-8-(8-((2-isopropylphenyl)thio)imidazo[1,2-c]pyrimidin-5-yl)-8-azaspiro[4.5]decan-1-amine] the IC50 was 100 to 1000 nM. In the case of `COc1ccccc1Sc1cnc(N2CCC3(CCC[C@H]3N)CC2)n2ncnc12` [(R)-8-(8-((2-methoxyphenyl)thio)-[1,2,4]triazolo[1,5-c]pyrimidin-5-yl)-8-azaspiro[4.5]decan-1-amine], the IC50 is reported as 100 to 1000 nM. `Cc1ncccc1Sc1cnc(N2CCC3(CCC[C@H]3N)CC2)n2cnnc12` [(R)-8-(8-((2-methylpyridin-3-yl)thio)-[1,2,4]triazolo[4,3-c]pyrimidin-5-yl)-8-azaspiro[4.5]decan-1-amine] was tested, and the IC50 was 100 to 1000 nM. `Cc1ncccc1Sc1cnc(N2CCC3(CCC[C@H]3N)CC2)n2ccnc12` [(R)-8-(8-((2-methylpyridin-3-yl)thio)imidazo[1,2-c]pyrimidin-5-yl)-8-azaspiro[4.5]decan-1-amine] was tested, and the IC50 was < 100 nM. Work on `N[C@@H]1CCCC12CCN(c1ncc(Sc3ccncc3C(F)(F)F)c3ncnn13)CC2` [(R)-8-(8-((3-(trifluoromethyl)pyridin-4-yl)thio)-[1,2,4]triazolo[1,5-c]pyrimidin-5-yl)-8-azaspiro[4.5]decan-1-amine] yielded an IC50 of 1000 to 10000 nM. Work on `CN(C)c1nccc(Sc2cnc(N3CCC4(CCC[C@H]4N)CC3)n3cnnc23)c1Cl` [(R)-8-(8-((3-chloro-2-(dimethylamino)pyridin-4-yl)thio)-[1,2,4]triazolo[4,3-c]pyrimidin-5-yl)-8-azaspiro[4.5]decan-1-amine] yielded an IC50 of 100 to 1000 nM. `Nc1ccc(Sc2cnc(N3CCC4(CCC[C@H]4N)CC3)n3cnnc23)cc1` [(R)-8-(8-((4-aminophenyl)thio)-[1,2,4]triazolo[4,3-c]pyrimidin-5-yl)-8-azaspiro[4.5]decan-1-amine] gave an IC50 of 1000 to 10000 nM. For `N[C@@H]1CCCC12CCN(c1ncc(Sc3ccc(Cl)cc3)c3nncn13)CC2` [(R)-8-(8-((4-chlorophenyl)thio)-[1,2,4]triazolo[4,3-c]pyrimidin-5-yl)-8-azaspiro[4.5]decan-1-amine], the IC50 was 1000 to 10000 nM. Compound `Nc1ccc(Sc2cnc(N3CCC4(CCC[C@H]4N)CC3)n3ncnc23)c(Cl)n1` [(R)-8-(8-((6-amino-2-chloropyridin-3-yl)thio)-[1,2,4]triazolo[1,5-c]pyrimidin-5-yl)-8-azaspiro[4.5]decan-1-amine] has an IC50 of 1000 to 10000 nM. In the case of `Nc1ccc(Sc2cnc(N3CCC4(CCC[C@H]4N)CC3)n3ccnc23)c(Cl)n1` [(R)-8-(8-((6-amino-2-chloropyridin-3-yl)thio)imidazo[1,2-c]pyrimidin-5-yl)-8-azaspiro[4.5]decan-1-amine], the IC50 is reported as < 100 nM. Compound `N[C@@H]1CCCC12CCN(c1ncc(Sc3cccc4ncsc34)c3nccn13)CC2` [(R)-8-(8-(benzo[d]thiazol-7-ylthio)imidazo[1,2-c]pyrimidin-5-yl)-8-azaspiro[4.5]decan-1-amine] has an IC50 of 100 to 1000 nM. With `N[C@@H]1CCCC12CCN(c1ncc(Sc3ccccc3)c3ncnn13)CC2` [(R)-8-(8-(phenylthio)-[1,2,4]triazolo[1,5-c]pyrimidin-5-yl)-8-azaspiro[4.5]decan-1-amine] the IC50 was 1000 to 10000 nM. `N[C@@H]1CCCC12CCN(c1ncc(Sc3ccccc3)c3nncn13)CC2` [(R)-8-(8-(phenylthio)-[1,2,4]triazolo[4,3-c]pyrimidin-5-yl)-8-azaspiro[4.5]decan-1-amine] was tested, and the IC50 was 1000 to 10000 nM. `N[C@@H]1CCCC12CCN(c1ncc(Sc3ccccn3)c3nncn13)CC2` [(R)-8-(8-(pyridin-2-ylthio)-[1,2,4]triazolo[4,3-c]pyrimidin-5-yl)-8-azaspiro[4.5]decan-1-amine] gave an IC50 of 1000 to 10000 nM. `N[C@@H]1CCCC12CCN(c1ncc(Sc3cccnc3)c3ncnn13)CC2` [(R)-8-(8-(pyridin-3-ylthio)-[1,2,4]triazolo[1,5-c]pyrimidin-5-yl)-8-azaspiro[4.5]decan-1-amine] was tested, and the IC50 was 1000 to 10000 nM. In the case of `N[C@@H]1CCCC12CCN(c1ncc(Sc3ccnc4ccccc34)c3nncn13)CC2` [(R)-8-(8-(quinolin-4-ylthio)-[1,2,4]triazolo[4,3-c]pyrimidin-5-yl)-8-azaspiro[4.5]decan-1-amine], the IC50 is reported as < 100 nM. With `CC(=O)Nc1ccc(Sc2cnc(N3CCC4(CCC[C@H]4N)CC3)n3cnnc23)cc1` [(R)-N-(4-((5-(1-amino-8-azaspiro[4.5]decan-8-yl)-[1,2,4]triazolo[4,3-c]pyrimidin-8-yl)thio)phenyl)acetamide] the IC50 was 1000 to 10000 nM. Compound `N[C@H]1CCC12CCN(c1ncc(Sc3cccc(Cl)c3Cl)c3nncn13)CC2` [(S)-7-(8-((2,3-dichlorophenyl)thio)-[1,2,4]triazolo[4,3-c]pyrimidin-5-yl)-7-azaspiro[3.5]nonan-1-amine] has an IC50 of 1000 to 10000 nM. Compound `N[C@H]1CCCC12CCN(c1ncc(Sc3cccc(Cl)c3Cl)c3nncn13)CC2` [(S)-8-(8-((2,3-dichlorophenyl)thio)-[1,2,4]triazolo[4,3-c]pyrimidin-5-yl)-8-azaspiro[4.5]decan-1-amine] has an IC50 of 1000 to 10000 nM. Compound `Cc1nccc(Sc2cnc(N3CCC4(CC3)COC[C@H]4N)n3ncnc23)c1Cl` [(S)-8-(8-((3-chloro-2-methylpyridin-4-yl)thio)-[1,2,4]triazolo[1,5-c]pyrimidin-5-yl)-2-oxa-8-azaspiro[4.5]decan-4-amine] has an IC50 of 1000 to 10000 nM. Compound `COC(=O)c1ccccc1Sc1cnc(N2CCC3(CCC[C@H]3N)CC2)n2cnnc12` [Methyl (R)-2-((5-(1-amino-8-azaspiro[4.5]decan-8-yl)-[1,2,4]triazolo[4,3-c]pyrimidin-8-yl)thio)benzoate] has an IC50 of 1000 to 10000 nM. For `COC(=O)CCSc1cnc(N2CCC3(CCC[C@H]3N)CC2)n2cnnc12` [Methyl (R)-3-((5-(1-amino-8-azaspiro[4.5]decan-8-yl)-[1,2,4]triazolo[4,3-c]pyrimidin-8-yl)thio)propionate], the IC50 was 1000 to 10000 nM.

The compounds below were run on MOLM-13 cells (assay: MOLM-13 cell proliferation experiment). Conditions: Homo sapiens, MOLM-13, 72 h, MOLM-13 cell proliferation, 3 days, Tables 3.1 and 3.2; read-out: IC50.
Type: cell-based
Method: After 3 days, 5 µL of CellTiter-Glo reagent (Promega, ZG7572) was added to each well, and the plates were kept at room temperature in the dark for 10 minutes. The […] was detected by Spectra max i3 (Molecular Devices). The relative growth rate of the treated cells was compared with that of DMSO control.
`NC1CCCCC12CCN(c1ncc(Sc3cccc(Cl)c3Cl)c3ncnn13)CC2` (centres unmarked) gave an IC50 of 1000 to 10000 nM. `C[C@@H]1OCC2(CCN(c3ncc(Sc4cc(N)ncc4Cl)c4nncn34)CC2)[C@@H]1N` showed an IC50 of 1000 to 10000 nM. Work on `C[C@@H]1OCC2(CCN(c3ncc(Sc4cc(N)ncc4Cl)c4nccn34)CC2)[C@@H]1N` yielded an IC50 of 100 to 1000 nM. For `N[C@@H]1CCCC12CCN(c1ncc(Sc3cccnc3Cl)c3ncnn13)CC2`, the IC50 was 1000 to 10000 nM. `COc1ccccc1Sc1cnc(N2CCC3(CCC[C@H]3N)CC2)n2ncnc12` showed an IC50 of 1000 to 10000 nM. `Cc1ncccc1Sc1cnc(N2CCC3(CCC[C@H]3N)CC2)n2cnnc12` gave an IC50 of 1000 to 10000 nM. In the case of `Cc1ncccc1Sc1cnc(N2CCC3(CCC[C@H]3N)CC2)n2ccnc12`, the IC50 is reported as 100 to 1000 nM. `CN(C)C(=O)C(=O)Nc1cccc(Sc2cnc(N3CCC4(CCC[C@H]4N)CC3)n3ccnc23)c1Cl` gave an IC50 of 100 to 1000 nM. Compound `NC1CCCN(c2ncc(Sc3cccc(Cl)c3Cl)c3ncnn23)CC1` (centres unmarked) [1-(8-((2,3-dichlorophenyl)thio)-[1,2,4]triazolo[1,5-c]pyrimidin-5-yl)azepan-4-amine] has an IC50 of 1000 to 10000 nM. Compound `CC1(N)CCN(c2ncc(Sc3cccc(Cl)c3Cl)c3nccn23)CC1` [1-(8-((2,3-dichlorophenyl)thio)imidazo[1,2-c]pyrimidin-5-yl)-4-methylpiperidin-4-amine] has an IC50 of 100 to 1000 nM. With `NCC1(c2ccccc2)CCN(c2ncc(Sc3cccc(Cl)c3Cl)c3nncn23)CC1` [(1-(8-((2,3-dichlorophenyl)thio)-[1,2,4]triazolo[4,3-c]pyrimidin-5-yl)-4-phenylpiperidin-4-yl)methanamine] the IC50 was 100 to 1000 nM. In the case of `Cc1nccc(Sc2cnc(N3CCC4(CC3)COC[C@H]4N)n3cnnc23)c1Cl` [(S)-8-(8-((3-chloro-2-methylpyridin-4-yl)thio)-[1,2,4]triazolo[4,3-c]pyrimidin-5-yl)-2-oxa-8-azaspiro[4.5]decan-4-amine], the IC50 is reported as 100 to 1000 nM.
